Results reported in patent publication US9073874B2, “Cyclic N,N′-diarylthioureas and N,N′-diarylureas-androgen receptor antagonists, anticancer agent, method for preparation and use thereof” (priority 2010, dated 2015).

Assays:
V1 a (h) = V1 a (h) (Homo sapiens, UniProt P37288); assay: competitive radioligand binding assay, V1 a (h) (agonist radioligand)
AR (h) = assay: competitive radioligand binding assay, AR (h) (agonist radioligand); parameters: species or system human; conditions: 10 μM
B1 (h) = B1 (h) (Homo sapiens, UniProt P46663); assay: competitive radioligand binding assay, B1 (h) (agonist radioligand)
5-HT transporter (h) = 5-HT transporter (h) (Homo sapiens, UniProt P31645); assay: competitive radioligand binding assay, 5-HT transporter (h) (antagonist radioligand)
P2Y = assay: competitive radioligand binding assay, P2Y (agonist radioligand); conditions: 10 μM
[1] = Distribution in plasma, brain and prostate after single IV administration in rats; assay type: in vivo; conditions: single IV 2 mg/kg
MT1 (ML1A) (h) = MT1 (ML1A) (h) (Homo sapiens, UniProt P48039); assay: competitive radioligand binding assay, MT1 (ML1A) (h) (agonist radioligand)
kainate = assay: competitive radioligand binding assay, kainate (agonist radioligand); conditions: 10 μM
H2 (h) = H2 (h) (Homo sapiens, UniProt P25021); assay: competitive radioligand binding assay, H2 (h) (antagonist radioligand)
B2 (h) = B2 (h) (Homo sapiens, UniProt P30411); assay: competitive radioligand binding assay, B2 (h) (agonist radioligand)
N neuronal α4β2 (h) = N neuronal α4β2 (h) (Homo sapiens, UniProt P17787+P43681); assay: competitive radioligand binding assay, N neuronal α4β2 (h) (agonist radioligand)
KATP channel = assay: competitive radioligand binding assay, KATP channel (antagonist radioligand); conditions: 10 μM
AMPA = assay: competitive radioligand binding assay, AMPA (agonist radioligand); conditions: 10 μM
NK1 (h) = NK1 (h) (Homo sapiens, UniProt P25103); assay: competitive radioligand binding assay, NK1 (h) (agonist radioligand)
GR (h) = GR (h) (Homo sapiens, UniProt P04150); assay: competitive radioligand binding assay, GR (h) (agonist radioligand)
EP2 (h) = EP2 (h) (Homo sapiens, UniProt P43116); assay: competitive radioligand binding assay, EP2 (h) (agonist radioligand)
MC4 (h) = MC4 (h) (Homo sapiens, UniProt P32245); assay: competitive radioligand binding assay, MC4 (h) (agonist radioligand)
V2 (h) = V2 (h) (Homo sapiens, UniProt P30518); assay: competitive radioligand binding assay, V2 (h) (agonist radioligand)
CCK1 (CCKA) (h) = CCK1 (CCKA) (h) (Homo sapiens, UniProt P32238); assay: competitive radioligand binding assay, CCK1 (CCKA) (h) (agonist radioligand)
ETB (h) = ETB (h) (Homo sapiens, UniProt P24530); assay: competitive radioligand binding assay, ETB (h) (agonist radioligand)
Y (non-selective) = assay: competitive radioligand binding assay, Y (non-selective) (agonist radioligand); conditions: 10 μM
α1 (non-selective) = assay: competitive radioligand binding assay, α1 (non-selective (antagonist radioligand)); conditions: 10 μM
TRH1 (h) = TRH1 (h) (Homo sapiens, UniProt P34981); assay: competitive radioligand binding assay, TRH1 (h) (agonist radioligand)
β1 (h) = β1 (h) (Homo sapiens, UniProt P08588); assay: competitive radioligand binding assay, β1 (h) (agonist radioligand)
NK3 (h) = NK3 (h) (Homo sapiens, UniProt P29371); assay: competitive radioligand binding assay, NK3 (h) (antagonist radioligand)
NOP (ORL1) (h) = NOP (ORL1) (h) (Homo sapiens, UniProt P41146); assay: competitive radioligand binding assay, NOP (ORL1) (h) (agonist radioligand)
KV channel = assay: competitive radioligand binding assay, KV channel (antagonist radioligand); conditions: 10 μM
[2] = target: choline transporter (CHT1) (h) (Homo sapiens, UniProt Q9GZV3); assay: competitive radioligand binding assay, choline transporter (CHT1) (h) (antagonist radioligand)
GABA transporter = assay: competitive radioligand binding assay, GABA transporter (antagonist radioligand); conditions: 10 μM
LnCAP-Z2 tumors = assay: Prostate cancer xenograft model, SCID male mice bearing LnCAP-Z2 tumors; assay type: in vivo; conditions: for antitumor efficacy (in words): oral
Protocol: SCID male mice bearing LnCAP-Z2 tumors (mean volume˜160-190 mm^3) were treated daily by oral gavage with vehicle or drugs for 21 days. Individual tumor volume change by the end of the study. Percentage of change in individual tumor volumes as compared to the start of treatment.
FIG. 6. […] SCID male mice bearing LnCAP-Z2 tumors (mean volume˜160-190 mm^3) treated daily by oral gavage with vehicle or drugs for 21 days. Individual tumor volume change by the end of the study. Percentage of change in individual tumor volumes compared to the start of treatment.
FIG. 7. […] SCID male mice bearing LnCAP-Z2 tumors (mean volume˜160-190 mm^3) treated daily by oral gavage with vehicle or drugs for 21 days. (A)—Tumor weight by the end of the study. Mean±SEM are presented. […] (B)—PSA expression by the end of the study. Plasma samples were collected 24 hours after the last drug administration. Mean±SEM are presented.
The antitumor efficacy of (R)-1 was tested in a xenograft model of prostate cancer (FIGS. 6 and 7). Male immunodeficient mice harboring LnCAP-Z2 tumors were treated orally for 21 days with either vehicle or (R)-1 at 20 and 50 mg/kg once daily and at 20 mg/kg twice daily. […] Twenty-four hours after last treatment, blood samples were collected from all animals and used for measuring PSA expression and drug concentration. In addition, the concentration of drugs and Ki67 expression were measured in tumor samples.

5-HT (non-selective) = assay: competitive radioligand binding assay, 5-HT (non-selective) (agonist radioligand); conditions: 10 μM
IP (PGI2) (h) = IP (PGI2) (h) (Homo sapiens, UniProt P43119); assay: competitive radioligand binding assay, IP (PGI2) (h) (agonist radioligand)
[3] = system: Ca2+channel (L, verapamil site) (phenylalkylamine); assay: competitive radioligand binding assay, Ca2+channel (L, verapamil site) (phenylalkylamine) (antagonist radioligand); conditions: 10 μM
NK2 (h) = NK2 (h) (Homo sapiens, UniProt P21452); assay: competitive radioligand binding assay, NK2 (h) (agonist radioligand)
A1 (h) = A1 (h) (Homo sapiens, UniProt P30542); assay: competitive radioligand binding assay, A1 (h) (antagonist radioligand)

## CNC(=O)c1ccc(N2C(=S)N(c3ccc(C#N)c(C(F)(F)F)c3)C(=O)[C@]23CCOC3)cc1F [(R)-1, 4-[(R)-3-(4-cyano-3-trifluoromethyl-phenyl)-4-oxo-2-thioxo-7-oxa-1,3-diaza-spiro[4.4]non-1-yl]-2-fluoro-N-methyl-benzamide]
V1 a (h)
  inhibition at 10 µM: 12.3%
AR (h)
  % Inhibition: 96.3%
B1 (h)
  inhibition at 10 µM: 0.5%
5-HT transporter (h)
  inhibition at 10 µM: 43.5%
P2Y
  % Inhibition: 33.3%
[1]; rat, plasma, 30 min, Mean ± SD, n = 3
  concentration at 30 min: 746 ± 104 ng/mL
[1]; rat, plasma, 120 min, Mean ± SD, n = 3
  concentration at 120 min: 522 ± 57 ng/mL
[1]; 30 min
  Brain/Plasma: 0.19 ± 0.02
  Prostate/Plasma: 1.55 ± 0.08
[1]; 30 min, Mean ± SD, n = 3
  Brain: 145 ± 22 ng/g
  Plasma: 746 ± 104 ng/mL
  Prostate: 1159 ± 164 ng/g
[1]; 120 min
  Brain/Plasma: 0.17 ± 0.35
  Prostate/Plasma: 1.20 ± 0.36
[1]; 120 min, Mean ± SD, n = 3
  Brain: 89 ± 10 ng/g
  Plasma: 522 ± 57 ng/mL
  Prostate: 625 ± 108 ng/g
MT1 (ML1A) (h)
  inhibition at 10 µM: -6.2%
kainate
  % Inhibition: 13.1%
H2 (h)
  inhibition at 10 µM: -2.6%
B2 (h)
  inhibition at 10 µM: -5.2%
N neuronal α4β2 (h)
  inhibition at 10 µM: 0.2%
KATP channel
  % Inhibition: −0.8%
AMPA
  % Inhibition: −23.0%
NK1 (h)
  inhibition at 10 µM: 14.7%
GR (h)
  inhibition at 10 µM: 29.4%
EP2 (h)
  inhibition at 10 µM: 0%
MC4 (h)
  inhibition at 10 µM: -3.1%
V2 (h)
  inhibition at 10 µM: 1.5%
CCK1 (CCKA) (h)
  inhibition at 10 µM: 10.6%
ETB (h)
  inhibition at 10 µM: -1.7%
Y (non-selective)
  % Inhibition: −16.4%
α1 (non-selective)
  % Inhibition: 0.7%
TRH1 (h)
  inhibition at 10 µM: 3.4%
β1 (h)
  inhibition at 10 µM: 1.8%
NK3 (h)
  inhibition at 10 µM: -4.5%
NOP (ORL1) (h)
  inhibition at 10 µM: -1.7%
KV channel
  % Inhibition: −10.1%
[2]
  inhibition at 10 µM: 9.7%
GABA transporter
  % Inhibition: 9.7%
LnCAP-Z2 tumors; 20 mg/kg twice daily, oral gavage, 21 days
  tumors regressed: 4 of 8
LnCAP-Z2 tumors; analysis of individual tumors, 21 days oral
  effect on individual tumors (in words): stimulate tumor regression
LnCAP-Z2 tumors; once daily at 20 or 50 mg/kg, 21 days
  antitumor efficacy (in words): comparable with Ia administered once daily at 10 mg/kg
LnCAP-Z2 tumors; twice daily at 20 mg/kg, 21 days
  antitumor efficacy (in words): highest antitumor efficacy
5-HT (non-selective)
  % Inhibition: −8.2%
IP (PGI2) (h)
  inhibition at 10 µM: -7.3%
[3]
  % Inhibition: 4.0%
NK2 (h)
  inhibition at 10 µM: -8.7%
A1 (h)
  inhibition at 10 µM: -11.8%
